Source: patent US20240279218A1 (Hoffmann-La Roche Inc., priority 2016, published 2024)
Where two headings read alike, the source gives them in different places.

Key:
[1] = target: T1, h-GABA-A α5β3γ2 (Homo sapiens (Human), UniProt P18507+P31644); assay: [3H]flumazenil competition binding assay, membranes of HEK293 cells expressing human GABAA receptors
Description: The affinity of compounds at GABAA receptor subtypes was measured by competition for [3H]flumazenil (85 Ci/mmol; Roche) binding to HEK293 cells expressing rat (stably transfected) or human (transiently transfected) receptors of composition α1β3γ2, α2β3γ2, α3β3γ2 and α5β3γ2.
Cell pellets were suspended in Krebs-tris buffer (4.8 mM KCl, 1.2 mM CaCl2, 1.2 mM MgCl2, 120 mM NaCl, 15 mM Tris; pH 7.5; binding assay buffer), homogenized by polytron for ca. 20 sec on ice and centrifuged for 60 min at 4° C. (50000 g; Sorvall, rotor: SM24=20000 rpm). The cell pellets were resuspended in Krebs-tris buffer and homogenized by polytron for ca. 15 sec on ice. Protein was measured (Bradford method, Bio-Rad) and aliquots of 1 mL were prepared and stored at −80° C.
Assays were incubated to equilibrium for 1 hour at 4° C. and harvested onto GF/C uni-filters (Packard) by filtration using a Packard harvester and washing with ice-cold wash buffer (50 mM Tris; pH 7.5). After drying, filter-retained radioactivity was detected by liquid scintillation counting. Ki values were calculated using Excel-Fit (Microsoft) and are the means of two determinations.

[2] = target: T1, h-GABA-A α5β3γ2; assay: Two-electrode voltage clamp electrophysiology in Xenopus oocytes expressing GABAA receptors, modulation of GABA EC20 current; format: cell-based
Description: Xenopus laevis oocytes at maturation stages V-VI were used for the expression of cloned mRNA encoding GABAA receptor subunits. Oocytes ready for RNA micro-injection were bought from Ecocyte, Castrop-Rauxel, Germany and stored in modified Barth's medium (composition in mM: NaCl 88, KCl 1, NaHCO32.4, HEPES 10, MgSO4 0.82, CaNO3 0.33, CaCl2) 0.33, pH=7.5) at 20° C. until the experiment.
Oocytes were plated in 96-well plates to be used in an automated instrument (Robo-ocyte, MultiChannelSystems, Reutlingen, Germany) for microinjection and electrophysiological recordings. Approximately 50 nl of an aqueous solution containing the RNA transcripts for the subunits of the desired GABAA receptor was injected into each oocyte. RNA concentrations ranged between 0.3 and 16 ng/μl/subunit and were adjusted in pilot experiments to obtain GABA responses of a suitable size and a maximal effect of the reference modulator, Beta-CCM (β-CCM), a betacarboline negative allosteric modulator (NAM) at the GABAA receptor benzodiazepine (BZD) binding site or Midazolam, a benzodiazepine positive allosteric modulator (PAM) at the GABAA receptor benzodiazepine (BZD) binding site. The concentration of the γ2 subunit encoding RNA usually was 5-to 10-fold higher than the RNAs encoding the other subunits. Oocytes were kept in modified Barth's medium (composition in mM: NaCl 88, KCl 1, NaHCO3 4, HEPES 10, MgSO4 0.82, CaNO3 0.33, CaCl2 0.33, pH=7.5) at 20° C. until the experiment.
Electrophysiological experiments were performed on days 3 to 5 after the micro-injection of mRNA. During the experiment the oocytes were constantly superfused by a solution containing (in mM) NaCl 90, KCl 1, HEPES 5, MgCl2 1, CaCl2 1 (pH 7.4). Oocytes were impaled by two glass microelectrodes (resistance: 0.4 MΩ) which were filled with a solution containing KCl 1M+K-acetate 1.5 M and voltage-clamped to −80 mV. The recordings were performed at room temperature using the Roboocyte two-electrode voltage clamp system (Multichannelsystem). After an initial equilibration period of 1.5 min GABA was added for 1.5 min at a concentration evoking approximately 20% of a maximal current response (EC20). After another rest interval of 2.5 min GABA was again added evoking a response of similar amplitude and shape. […] Current traces were recorded at a digitization rate of 10 Hz during and shortly before and after the GABA application.
Each compound and concentration was tested on at least 3 oocytes.
For the analysis, the digitized current traces of the first and second GABA response were superimposed and, if necessary, rescaled to equal maximal amplitudes. The ratio between the two responses during the time interval of test compound application was calculated point by point. The extremum of the resulting “ratio trace” was taken as the efficacy (“Fold increase”) of the compound expressed as “% modulation of GABA EC20” (100*(Fold increase−1)).

[3] = displacement of [3H]flumazenil 0.5 nM, HEK293 cells expressing human receptors, mean of two determinations, read-out: Ki h-GABA-A α5β3γ2
[4] = % modulation of GABA EC20 = 100*(Fold increase−1), Xenopus oocytes
[5] = Xenopus oocytes, GABA EC20, test compound at approx. 30 fold its Ki

| Compound | Ki [1, 3] | Efficacy (GABA) % [2, 4] | Fold increase h-GABA-A α5β3γ2 oocyte [2, 5] | Ki ([1]; reference compounds, GABAA receptor α5β3γ2, read-out: Ki α5-human) | Efficacy (GABA) % ([2]; reference compounds, % modulation of GABA EC20) | Fold increase h-GABA-A α5β3γ2 oocyte ([2]; reference compounds, GABAA α5β3γ2 overexpressing oocytes, GABA EC20) |
| --- | --- | --- | --- | --- | --- | --- |
| Cc1ccc(-c2noc(C)c2COc2ccc(C(=O)N[C@H]3CCOC[C@@H]3O)cn2)cn1 [Example 127, N-((3R,4S)-3-hydroxytetrahydropyran-4-yl)-6-((5-methyl-3-(6-methyl-3-pyridyl)isoxazol-4-yl)methoxy)pyridine-3-carboxamide] | 22.8 nM | 50% | 1.5 |  |  |  |
| Cc1ccc(-c2noc(C)c2COc2ccc(C(=O)N3CC(C#N)C3)nn2)cn1 [Example 84, 1-(6-((5-methyl-3-(6-methylpyridin-3-yl)isoxazol-4-yl)methoxy)pyridazine-3-carbonyl)azetidine-3-carbonitrile] | 19 nM | 54% | 1.54 |  |  |  |
| Cc1ccc(-c2noc(C)c2COc2ccc(C(=O)N[C@@H]3CC[C@@H](OCC(F)F)C3)nn2)cn1 [Example 191, N-((1R,3R)-3-(2,2-difluoroethoxy)cyclopentyl)-6-((5-methyl-3-(6-methylpyridin-3-yl)isoxazol-4-yl)methoxy)pyridazine-3-carboxamide] | 11.2 nM | 60% | 1.6 |  |  |  |
| Cc1ccc(-c2noc(C)c2COc2ccc(C(=O)N[C@@H]3CCOC[C@H]3O)cn2)cn1 [Example 134, N-((3S,4R)-3-hydroxytetrahydro-2H-pyran-4-yl)-6-((5-methyl-3-(6-methylpyridin-3-yl)isoxazol-4-yl)methoxy)pyridine-3-carboxamide] | 20.8 nM | 66% | 1.66 |  |  |  |
| Cc1ccc(-c2noc(C)c2COc2cc3c(cn2)C(=O)N(CCO)C3)cn1 [Example 12, 2-(2-hydroxyethyl)-6-((5-methyl-3-(6-methylpyridin-3-yl)isoxazol-4-yl)methoxy)-1H-pyrrolo[3,4-c]pyridin-3(2H)-one] | 16.3 nM | 74% | 1.74 |  |  |  |
| Cc1ccc(-c2noc(C)c2COc2ccc(C(=O)NC3CCOCC3)cn2)cc1 [RO-251, reference compound] |  |  |  | 1 nM | −18% | 0.82 |
| COCC1(NC(=O)c2ccc(OCc3c(-c4ccc(C)nc4)noc3C)nn2)CC1 [Example 54, N-(1-(methoxymethyl)cyclopropyl)-6-((5-methyl-3-(6-methylpyridin-3-yl)isoxazol-4-yl)methoxy)pyridazine-3-carboxamide] | 19.9 nM | 86% | 1.86 |  |  |  |
| Cc1ccc(-c2noc(C)c2COc2cc3c(cn2)C(=O)N(C2CCC(F)(F)CC2)C3)cn1 [Example 96, 2-(4,4-difluorocyclohexyl)-6-((5-methyl-3-(6-methylpyridin-3-yl)isoxazol-4-yl)methoxy)-1H-pyrrolo[3,4-c]pyridin-3(2H)-one] | 7.2 nM | 88% | 1.88 |  |  |  |
| Cc1ccc(-c2noc(C)c2COc2cnc(C(=O)NC3CCOCC3)cn2)cn1 [Example 15, 5-((5-methyl-3-(6-methylpyridin-3-yl)isoxazol-4-yl)methoxy)-N-(tetrahydropyran-4-yl)pyrazine-2-carboxamide] | 19.8 nM | 55% | 1.55 |  |  |  |
| CCc1onc(-c2ccc(C)nc2)c1COc1ccc(C(=O)NC2CCOCC2)cn1 [Example 119, 6-((5-ethyl-3-(6-methylpyridin-3-yl)isoxazol-4-yl)methoxy)-N-tetrahydropyran-4-yl-pyridine-3-carboxamide] | 31 nM | 102% | 2.02 |  |  |  |
| Cc1ccc(-c2noc(C)c2COc2ccc(C(=O)N[C@@H]3CCCOC3)nn2)cn1 [Example 99, (R)-6-((5-methyl-3-(6-methylpyridin-3-yl)isoxazol-4-yl)methoxy)-N-(tetrahydropyran-3-yl)pyridazine-3-carboxamide] | 6.8 nM | 73% | 1.73 |  |  |  |
| CO[C@H]1C[C@@H](NC(=O)c2ccc(OCc3c(-c4ccc(C)nc4)noc3C)nn2)C1 [Example 164, cis-N-(3-methoxycyclobutyl)-6-((5-methyl-3-(6-methyl-3-pyridyl)isoxazol-4-yl)methoxy)pyridazine-3-carboxamide] | 11.5 nM | 95% | 1.95 |  |  |  |
| Cc1onc(-c2ccc(C3CC3)nc2)c1COc1ccc(C(=O)NC2CCOCC2)cn1 [Example 128, 6-((3-(6-cyclopropyl-3-pyridyl)-5-methyl-isoxazol-4-yl)methoxy)-N-tetrahydropyran-4-yl-pyridine-3-carboxamide] | 6.1 nM | 107% | 2.07 |  |  |  |
| CO[C@H]1C[C@H](NC(=O)c2ccc(OCc3c(-c4ccc(C)nc4)noc3C)nn2)C1 [Example 163, trans-N-(3-methoxycyclobutyl)-6-((5-methyl-3-(6-methyl-3-pyridyl)isoxazol-4-yl)methoxy)pyridazine-3-carboxamide] | 8.6 nM | 98% | 1.98 |  |  |  |
| Cc1ccc(-c2noc(C)c2COc2ccc(C(=O)N[C@@H]3C[C@@H]4CC[C@@H]3O4)nn2)cn1 (single isomer, unassigned) [Example 189] | 18.8 nM | 86% | 1.86 |  |  |  |
| CNC(=O)c1ccc(OCc2c(-c3ccc(C)nc3)noc2C)nc1F [Example 136, 2-fluoro-N-methyl-6-((5-methyl-3-(6-methylpyridin-3-yl)isoxazol-4-yl)methoxy)pyridine-3-carboxamide] | 14.8 nM | 54% | 1.54 |  |  |  |
| Cc1ccc(-c2noc(C)c2COc2ccc(C(=O)NC3CCC(F)(F)CC3)nn2)cn1 [Example 43, N-(4,4-difluorocyclohexyl)-6-((5-methyl-3-(6-methylpyridin-3-yl)isoxazol-4-yl)methoxy)pyridazine-3-carboxamide] | 16.4 nM | 82% | 1.82 |  |  |  |
| Cc1ccc(-c2noc(C)c2COc2ccc(C(=O)N3CC(C)(F)C3)nn2)cn1 [Example 67, (3-fluoro-3-methylazetidin-1-yl)(6-((5-methyl-3-(6-methylpyridin-3-yl)isoxazol-4-yl)methoxy)pyridazin-3-yl)methanone] | 11.8 nM | 59% | 1.59 |  |  |  |
| Cc1ccc(-c2noc(C)c2COc2ccc(C(=O)NCCC#N)nn2)cn1 [Example 33, N-(2-cyanoethyl)-6-((5-methyl-3-(6-methylpyridin-3-yl)isoxazol-4-yl)methoxy)pyridazine-3-carboxamide] | 11.6 nM | 76% | 1.76 |  |  |  |
